Test results taken from patent US20260347373A1, “HETEROCYCLIC COMPOUNDS, COMPOSITIONS THEREOF, AND METHODS OF TREATMENT THEREWITH” (BeOne Medicines I GmbH, priority 2023, published 2026).
Like-named read-outs stand apart in the source and are kept apart here.

Experiments:
KRAS G12D = KRAS G12D (Homo sapiens, UniProt P01116, G12D); assay: KRAS G12D Probe Displacement Assay (TR-FRET, GDP-loaded); assay type: binding
Text: (§1) The synthetic routes of probe 1 and 2, which have been disclosed in PCT/CN2022/070676, are hereby incorporated herein.

WT KRAS = WT KRAS (Homo sapiens, UniProt P01116); assay: KRAS WT Probe Displacement Assay (TR-FRET, GDP-loaded); assay type: binding; conditions: KRAS WT, read-out: KRAS^WT Probe Displacement Assay IC50
Chain of WT KRAS (P01116 1-188 isoform P01116-2): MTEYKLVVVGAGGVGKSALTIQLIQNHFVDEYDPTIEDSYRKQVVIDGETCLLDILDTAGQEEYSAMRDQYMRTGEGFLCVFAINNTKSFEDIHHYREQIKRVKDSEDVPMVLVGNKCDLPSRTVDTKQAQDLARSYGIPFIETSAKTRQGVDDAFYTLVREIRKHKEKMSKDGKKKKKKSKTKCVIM
Text: as §1

[1] = KRAS G12D, read-out: KRAS^G12D Probe Displacement Assay IC50

Chain of KRAS G12D (P01116 1-188 isoform P01116-2 G12D): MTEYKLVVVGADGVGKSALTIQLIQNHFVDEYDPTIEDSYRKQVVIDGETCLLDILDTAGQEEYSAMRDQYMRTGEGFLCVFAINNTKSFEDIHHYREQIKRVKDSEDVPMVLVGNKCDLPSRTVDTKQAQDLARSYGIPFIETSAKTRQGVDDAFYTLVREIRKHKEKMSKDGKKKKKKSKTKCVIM

Compound: Cc1cc(N)cc(-c2nc3c4c(nc(OCC5(C)COCC5N(C)C)nc4c2F)N2C[C@H]4CC[C@H](N4)[C@H]2CCO3)c1C(F)(F)F (mixture of isomers) [Example 15, 4-((((6aR,7S,10R)-2-(5-amino-3-methyl-2-(trifluoromethyl)phenyl)-1-fluoro-5,6,6a,7,8,9,10,11-octahydro-4-oxa-3,11a,12,14,15-pentaaza-7,10-methanocyclohepta[4,5]cycloocta [1,2,3-de]naphthalen-13-yl)oxy)methyl)-N,N,4-trimethyltetrahydrofuran-3-amine]
- IC50 (KRAS G12D; [1]): 0.3 to 3 nM

Compound: CN(C)CC1(COc2nc3c4c(nc(-c5cc(N)cc(Cl)c5C(F)(F)F)c(F)c4n2)OCC[C@@H]2[C@@H]4CC[C@H](CN32)N4)CC1(F)F (mixture of isomers) [Example 18, 3-chloro-5-((6aR,7S,10R)-13-((1-((dimethylamino)methyl)-2,2-difluorocyclopropyl)methoxy)-1-fluoro-5,6,6a,7,8,9,10,11-octahydro-4-oxa-3,11a,12,14,15-pentaaza-7,10-methanocyclohepta[4,5]cycloocta [1,2,3-de]naphthalen-2-yl)-4-(trifluoromethyl)aniline]
- IC50 (WT KRAS): 3 to 1000 nM
- IC50 (KRAS G12D; [1]): < 0.3 nM

Compound: COC1CN(CC2(COc3nc4c5c(nc(-c6cc(N)cc(C)c6C(F)(F)F)c(F)c5n3)OCC[C@@H]3[C@@H]5CC[C@H](CN43)N5)CC2(F)F)C1 (single isomer, unassigned) [Example 21]
- IC50 (KRAS G12D; KRAS^G12D Probe Displacement Assay IC50, KRAS G12D): 0.3 to 3 nM

Compound: Cc1cc(N)cc(-c2nc3c4c(nc(OCC5(CN6CC7CC7C6)CC5(F)F)nc4c2F)N2C[C@H]4CC[C@H](N4)[C@H]2CCO3)c1C(F)(F)F (single isomer, unassigned) [Example 29]
- IC50 (WT KRAS): 0.3 to 3 nM

Compound: CO[C@H]1CCN(C)[C@@H]1C(C)Oc1nc2c3c(nc(-c4cc(N)cc(C)c4C(F)(F)F)c(F)c3n1)OCC[C@@H]1[C@@H]3CC[C@H](CN21)N3 (single isomer, unassigned) [Example 76]
- IC50 (KRAS G12D; [1]): 0.3 to 3 nM

Compound: Cc1cc(N)cc(-c2nc3c4c(nc(OCC5(CN6CCCC6CO)CC5)nc4c2F)N2C[C@H]4CC[C@H](N4)[C@H]2CCO3)c1C(F)(F)F (single isomer, unassigned) [Example 125]
- IC50 (KRAS G12D; [1]): < 0.3 nM

Compound: Cc1cc(N)cc(-c2nc3c4c(nc(OCC5(CN6CCC7(C6)CC7(F)F)CC5)nc4c2F)N2C[C@H]4CC[C@H](N4)[C@H]2CCO3)c1C(F)(F)F (single isomer, unassigned) [Example 139]
- IC50 (WT KRAS): 3 to 1000 nM

Compound: CO[C@@H]1C[C@@H](C(C)Oc2nc3c4c(nc(-c5cc(N)cc(C)c5C(F)(F)F)c(F)c4n2)OCC[C@@H]2[C@@H]4CC[C@H](CN32)N4)N(C)C1 (single isomer, unassigned) [Example 145]
- IC50 (KRAS G12D; [1]): 0.3 to 3 nM

Compound: Cc1cc(N)cc(-c2nc3c4c(nc(OCC5(C)CN(C)CC/C5=C\F)nc4c2F)N2C[C@H]4CC[C@H](N4)[C@H]2CCO3)c1C(F)(F)F (single isomer, unassigned) [Example 237]
- IC50 (WT KRAS): 0.3 to 3 nM

Compound: Cc1cc(N)cc(-c2nc3c4c(nc(OCC5(C)CN(CC6CC6)CC/C5=C\F)nc4c2F)N2C[C@H]4CC[C@H](N4)[C@H]2CCO3)c1C(F)(F)F (single isomer, unassigned) [Example 239]
- IC50 (WT KRAS): 0.3 to 3 nM

Compound: Cc1cc(N)cc(-c2nc3c4c(nc(OC[C@]5(CN(C)C)CC5(F)F)nc4c2F)N2C[C@H]4CC[C@H](N4)[C@H]2CC(C)O3)c1C(F)(F)F (single isomer, unassigned) [Example 249]
- IC50 (WT KRAS): 3 to 1000 nM

Compound: Cc1cc(N)cc(-c2nc3c4c(nc(O[C@@H]5CCOC[C@H]5N(C)C)nc4c2F)N2C[C@H]4CC[C@H](N4)[C@H]2CCO3)c1C(F)(F)F [Example 7]
- IC50 (KRAS G12D; [1]): 3 to 1000 nM

Compound: Cc1cc(N)cc(-c2nc3c4c(nc(O[C@H]5CCOC[C@@H]5N(C)C)nc4c2F)N2C[C@H]4CC[C@H](N4)[C@H]2CCO3)c1C(F)(F)F [Example 9, (3S,4S)-4-(((6aR,7S,10R)-2-(5-amino-3-methyl-2-(trifluoromethyl)phenyl)-1-fluoro-5,6,6a,7,8,9,10,11-octahydro-4-oxa-3,11a,12,14,15-pentaaza-7,10-methanocyclohepta[4,5]cycloocta [1,2,3-de]naphthalen-13-yl)oxy)-N,N-dimethyltetrahydro-2H-pyran-3-amine]
- IC50 (KRAS G12D; [1]): 3 to 1000 nM

Compound: Cc1cc(N)cc(-c2nc3c4c(nc(O[C@@H]5COCC[C@H]5N(C)C)nc4c2F)N2C[C@H]4CC[C@H](N4)[C@H]2CCO3)c1C(F)(F)F [Example 10, (3S,4R)-3-(((6aR,7S,10R)-2-(5-amino-3-methyl-2-(trifluoromethyl)phenyl)-1-fluoro-5,6,6a,7,8,9,10,11-octahydro-4-oxa-3,11a,12,14,15-pentaaza-7,10-methanocyclohepta[4,5]cycloocta [1,2,3-de]naphthalen-13-yl)oxy)-N,N-dimethyltetrahydro-2H-pyran-4-amine]
- IC50 (KRAS G12D; [1]): 3 to 1000 nM

Compound: Cc1cc(N)cc(-c2nc3c4c(nc(O[C@H]5CCOC[C@H]5N(C)C)nc4c2F)N2C[C@H]4CC[C@H](N4)[C@H]2CCO3)c1C(F)(F)F [Example 11, (3R,4S)-4-(((6aR,7S,10R)-2-(5-amino-3-methyl-2-(trifluoromethyl)phenyl)-1-fluoro-5,6,6a,7,8,9,10,11-octahydro-4-oxa-3,11a,12,14,15-pentaaza-7,10-methanocyclohepta[4,5]cycloocta [1,2,3-de]naphthalen-13-yl)oxy)-N,N-dimethyltetrahydro-2H-pyran-3-amine]
- IC50 (KRAS G12D; [1]): 3 to 1000 nM

Compound: Cc1cc(N)cc(-c2nc3c4c(nc(O[C@H]5COCC[C@H]5N(C)C)nc4c2F)N2C[C@H]4CC[C@H](N4)[C@H]2CCO3)c1C(F)(F)F [Example 12, (3R,4R)-3-(((6aR,7S,10R)-2-(5-amino-3-methyl-2-(trifluoromethyl)phenyl)-1-fluoro-5,6,6a,7,8,9,10,11-octahydro-4-oxa-3,11a,12,14,15-pentaaza-7,10-methanocyclohepta[4,5]cycloocta [1,2,3-de]naphthalen-13-yl)oxy)-N,N-dimethyltetrahydro-2H-pyran-4-amine]
- IC50 (KRAS G12D; [1]): 3 to 1000 nM

Compound: Cc1cc(N)cc(-c2nc3c4c(nc(OC[C@H]5COC[C@@H]5N(C)C)nc4c2F)N2C[C@H]4CC[C@H](N4)[C@H]2CCO3)c1C(F)(F)F [Example 14, (3R,4R)-4-((((6aR,7S,10R)-2-(5-amino-3-methyl-2-(trifluoromethyl)phenyl)-1-fluoro-5,6,6a,7,8,9,10,11-octahydro-4-oxa-3,11a,12,14,15-pentaaza-7,10-methanocyclohepta[4,5]cycloocta [1,2,3-de]naphthalen-13-yl)oxy)methyl)-N,N-dimethyltetrahydrofuran-3-amine]
- IC50 (KRAS G12D; [1]): 3 to 1000 nM

Compound: Cc1cc(N)cc(-c2nc3c4c(nc(O[C@H]5COC[C@H]5N(C)C)nc4c2F)N2C[C@H]4CC[C@H](N4)[C@H]2CCO3)c1C(F)(F)F [Example 39, (3R,4R)-4-(((6aR,7S,10R)-2-(5-amino-3-methyl-2-(trifluoromethyl)phenyl)-1-fluoro-5,6,6a,7,8,9,10,11-octahydro-4-oxa-3,11a,12,14,15-pentaaza-7,10-methanocyclohepta[4,5]cycloocta [1,2,3-de]naphthalen-13-yl)oxy)-N,N-dimethyltetrahydrofuran-3-amine]
- IC50 (KRAS G12D; [1]): 3 to 1000 nM

Compound: Cc1cc(N)cc(-c2nc3c4c(nc(O[C@H]5COC[C@@H]5N(C)C)nc4c2F)N2C[C@H]4CC[C@H](N4)[C@H]2CCO3)c1C(F)(F)F [Example 40, (3S,4R)-4-(((6aR,7S,10R)-2-(5-amino-3-methyl-2-(trifluoromethyl)phenyl)-1-fluoro-5,6,6a,7,8,9,10,11-octahydro-4-oxa-3,11a,12,14,15-pentaaza-7,10-methanocyclohepta[4,5]cycloocta [1,2,3-de]naphthalen-13-yl)oxy)-N,N-dimethyltetrahydrofuran-3-amine]
- IC50 (KRAS G12D; [1]): 3 to 1000 nM

Compound: Cc1cc(N)cc(-c2nc3c4c(nc(OCC5(CN6CCn7ncnc7C6)CC5)nc4c2F)N2C[C@H]4CC[C@H](N4)[C@H]2CCO3)c1C(F)(F)F [Example 109, 3-((6aR,7S,10R)-13-((1-((5,6-dihydro-[1,2,4]triazolo[1,5-a]pyrazin-7(8H)-yl)methyl)cyclopropyl)methoxy)-1-fluoro-5,6,6a,7,8,9,10,11-octahydro-4-oxa-3,11a, 12,14,15-pentaaza-7,10-methanocyclohepta [4,5]cycloocta [1,2,3-de]naphthalen-2-yl)-5-methyl-4-(trifluoromethyl)aniline]
- IC50 (KRAS G12D; [1]): 3 to 1000 nM

Compound: COC1CN(C)CC(C)(COc2nc3c4c(nc(-c5cc(N)cc(C)c5C(F)(F)F)c(F)c4n2)OCC[C@@H]2[C@@H]4CC[C@H](CN32)N4)C1 (stereo partly drawn) [Example 127, 3-((6aR,7S,10R)-1-fluoro-13-((5-methoxy-1,3-dimethylpiperidin-3-yl)methoxy)-5,6,6a,7,8,9,10,11-octahydro-4-oxa-3,11a,12,14,15-pentaaza-7,10-methanocyclohepta[4,5]cycloocta[1,2,3-de]naphthalen-2-yl)-5-methyl-4-(trifluoromethyl)aniline]
- IC50 (KRAS G12D; [1]): < 0.3 nM

Compound: COC1CN(C)CC(C)(COc2nc3c4c(nc(-c5cc(N)cc(C)c5C(F)(F)F)c(F)c4n2)OCC[C@@H]2[C@@H]4CC[C@H](CN32)N4)C1 (stereo partly drawn) [Example 129, 3-((6aR,7S,10R)-1-fluoro-13-((5-methoxy-1,3-dimethylpiperidin-3-yl)methoxy)-5,6,6a,7,8,9,10,11-octahydro-4-oxa-3,11a,12,14,15-pentaaza-7,10-methanocyclohepta[4,5]cycloocta[1,2,3-de]naphthalen-2-yl)-5-methyl-4-(trifluoromethyl)aniline]
- IC50 (KRAS G12D; [1]): 3 to 1000 nM

Compound: CCN1CC(F)CC(C)(COc2nc3c4c(nc(-c5cc(N)cc(C)c5C(F)(F)F)c(F)c4n2)OCC[C@@H]2[C@@H]4CC[C@H](CN32)N4)C1 (stereo partly drawn) [Example 203, 3-((6aR,7S,10R)-13-((1-ethyl-5-fluoro-3-methylpiperidin-3-yl)methoxy)-1-fluoro-5,6,6a,7,8,9,10,11-octahydro-4-oxa-3,11a,12,14,15-pentaaza-7,10-methanocyclohepta[4,5]cycloocta[1,2,3-de]naphthalen-2-yl)-5-methyl-4-(trifluoromethyl)aniline]
- IC50 (KRAS G12D; [1]): 0.3 to 3 nM
